Experimental data as given in patent US5773459A, “Urea- and thiourea-type compounds” (Sugen, Inc., priority 1995, dated 1998).
Where two headings read alike, the source gives them in different places.

What was measured:
HER2 = biological target: T1, HER2 (Homo sapiens, UniProt P04626); assay: HER2-ELISA, HER2-BT474 assay measuring whole cell HER2 activity; assay type: cell-based
T1 construct: a human breast tumor cell line which expresses high levels of HER2 kinase; host or cells: BT-474 human breast tumor cells
Description: Growth assays were carried out using human mammary epithelial SKBR3 (ATCC HTB30) cells (SKBR3 cells over-express HER2), SKOV3 (ATCC HTB77) human ovarian cancer cell line (SKOV3 cells also over-express HER2), A431 cells (A431 cells over-express EGFR) MCF7 human breast carcinoma cells, MCF7 cells overexpressing the HER2 kinase (MCF7-HER2), NIH3T3 cells, and NIH3T3 cells overexpressing the HER2 kinase (3T3-HER2.
HER2-BT474 assays measuring whole cell HER2 activity was carried out as described below:
2. […] The growth media is RPMI+10% FBS+GMS-G (Gibco supplement)+Glutamine.
3. A monoclonal anti-HER2 antibody is used in ELISA.
Incubate the cells in 5% CO2 at 37° C. overnight.
2. ELISA Plate Coating and Blocking
The antibody coated plates can be used up to 2 weeks, when stored at 4° C.
(b) On the day of use, remove the coating solution, replace with 200 μl of Blocking Buffer, shake the plate, and then remove the blocking buffer and wash the plate just before adding lysate.
(a) […] the drugs in serum-free condition. Before adding drugs, the old media
(b) Dilute drug stock (in 100% DMSO) 1:10 with RPMI, and transfer 10 μl/well of this solution to the cells to achieve a final drug DMSO concentration at 1%. Incubate the cells in 5% CO2 at 37° C.
(c) Prepare fresh cell lysis buffer (HNTG*)
(d) After drug preincubation for two hours remove all the solution from the plate, transfer HNTG* 100 μl/well to the cells, and shake for 10 minutes.
(e) Use a 12-channel pipette to scrape the cells from the plate, and homogenize the lysate by repeat aspiration and dispensing. Transfer all the lysate to the ELISA plate and shake for 1 hour.
(f) Remove the lysate, wash the plate, add anti-pTyr (1:3,000 with TBST) 100 μl/well, and shake for 30 minutes.
(g) Remove anti-pTyr, wash the plate, add goat anti-rabbit IgG conjugated antibody (1:5,000 with TBST) 100 μl/well, and shake for 30 minutes.
(h) Remove anti-rabbit IgG antibody, wash the plate, and add fresh ABTS/H2 O2 (1.2 μl 30% H2 O2 in 10 ml ABTS) 100 μl/well to the plate to start color development, which usually takes 20 minutes.

[1] = tested on: chimeric receptor containing the EGFR extracellular domain and the HER2 intracellular kinase domain; assay: EGFR-HER2 chimeric receptor assay, HER2 kinase activity in whole NIH3T3 cells; assay type: cell-based; details: NIH3T3 cells with EGFR-HER2 chimera, EGF stimulated; read-out: ELISA DATA: HER2 - (3T3)
Text: The following examples illustrate the ability of the exemplary compounds to inhibit receptor tyrosine kinases, such as HER2 and/or EGFR. The following target cells were used for cellular kinase assays: NIH3T3 clone C7 (Honegger et al., supra) engineered to over-express human EGF receptor; NIH3T3 cells engineered to over-express a chimeric receptor containing the EGFR extracellular domain and the HER2 intracellular kinase domain; the human mammary carcinoma line BT474 (ATCC HTB2) expressing HER2; and the human glioblastoma line U1242 that expresses PDGFR-beta. Growth assays were carried out using human mammary epithelial SKBR3 (ATCC HTB30) cells (SKBR3 cells over-express HER2), SKOV3 (ATCC HTB77) human ovarian cancer cell line (SKOV3 cells also over-express HER2), A431 cells (A431 cells over-express EGFR) MCF7 human breast carcinoma cells, MCF7 cells overexpressing the HER2 kinase (MCF7-HER2), NIH3T3 cells, and NIH3T3 cells overexpressing the HER2 kinase (3T3-HER2.
EGFR-HER2 Chimeric Recetor
HER2 kinase activity (EGFR-3T3) in whole cells was measured as described below:
The materials and regeants are identical to these used in example 1, the EGFR whole cell kinase assay.
A. Coat ELISA plates (Corning, 96 well, Cat. #25805-96) with 05-101 antibody at 0.5 μg per well in PBS, 100 μl final volume/well, and store overnight at 4.sunburst.C. Coated plates are good for up to 10 days when stored at 4° C.
B. On day of use, remove coating buffer and replace with 100 μl blocking buffer (5% Carnation Instant Non-Fat Dry Milk in PBS). Incubate the plate, shaking, at room temperature (about 23.sunburst.C to 25.sunburst.C) for 30 minutes. Just prior to use, remove blocking buffer and wash plate 4 times with TBST buffer.
A. An NIH3T3 cell line overexpressing a chimeric receptor containing the EGFR extracellular domain and […] can be used for this assay.
B. Choose dishes having 80-90% confluence for the experiment. Trypsinize cells and stop reaction by adding 10% fetal bovine serum. Suspend cells in DMEM medium (10% CS DMEM medium) and centrifuge once at 1500 rpm, at room temperature for 5 minutes.
C. Resuspend cells in seeding medium (DMEM, 0.5% bovine serum) , and count the cells using trypan blue. Viability above 90% is acceptable. Seed cells in DMEM medium (0.5% bovine serum) at a density of 10,000 cells per well, 100 μl per well, in a 96 well microtiter plate. Incubate seeded cells in 5% CO2 at 37.sunburst.C for about 40 hours.
A. Check seeded cells for contamination using an inverted microscope. Dilute drug stock (10 mg/ml in DMSO) 1:10 in DMEM medium, then transfer 5 l to a […] well for a final drug dilution of 1:200 and a final DMSO concentration of 1%. Control wells receive DMSO alone. Incubate in 5% CO2 at 37° C. for two hours. […]

[2] = BT474 cells, read-out: ELISA DATA: HER2 - (BT474)

T1 sequence (P04626 23-1255): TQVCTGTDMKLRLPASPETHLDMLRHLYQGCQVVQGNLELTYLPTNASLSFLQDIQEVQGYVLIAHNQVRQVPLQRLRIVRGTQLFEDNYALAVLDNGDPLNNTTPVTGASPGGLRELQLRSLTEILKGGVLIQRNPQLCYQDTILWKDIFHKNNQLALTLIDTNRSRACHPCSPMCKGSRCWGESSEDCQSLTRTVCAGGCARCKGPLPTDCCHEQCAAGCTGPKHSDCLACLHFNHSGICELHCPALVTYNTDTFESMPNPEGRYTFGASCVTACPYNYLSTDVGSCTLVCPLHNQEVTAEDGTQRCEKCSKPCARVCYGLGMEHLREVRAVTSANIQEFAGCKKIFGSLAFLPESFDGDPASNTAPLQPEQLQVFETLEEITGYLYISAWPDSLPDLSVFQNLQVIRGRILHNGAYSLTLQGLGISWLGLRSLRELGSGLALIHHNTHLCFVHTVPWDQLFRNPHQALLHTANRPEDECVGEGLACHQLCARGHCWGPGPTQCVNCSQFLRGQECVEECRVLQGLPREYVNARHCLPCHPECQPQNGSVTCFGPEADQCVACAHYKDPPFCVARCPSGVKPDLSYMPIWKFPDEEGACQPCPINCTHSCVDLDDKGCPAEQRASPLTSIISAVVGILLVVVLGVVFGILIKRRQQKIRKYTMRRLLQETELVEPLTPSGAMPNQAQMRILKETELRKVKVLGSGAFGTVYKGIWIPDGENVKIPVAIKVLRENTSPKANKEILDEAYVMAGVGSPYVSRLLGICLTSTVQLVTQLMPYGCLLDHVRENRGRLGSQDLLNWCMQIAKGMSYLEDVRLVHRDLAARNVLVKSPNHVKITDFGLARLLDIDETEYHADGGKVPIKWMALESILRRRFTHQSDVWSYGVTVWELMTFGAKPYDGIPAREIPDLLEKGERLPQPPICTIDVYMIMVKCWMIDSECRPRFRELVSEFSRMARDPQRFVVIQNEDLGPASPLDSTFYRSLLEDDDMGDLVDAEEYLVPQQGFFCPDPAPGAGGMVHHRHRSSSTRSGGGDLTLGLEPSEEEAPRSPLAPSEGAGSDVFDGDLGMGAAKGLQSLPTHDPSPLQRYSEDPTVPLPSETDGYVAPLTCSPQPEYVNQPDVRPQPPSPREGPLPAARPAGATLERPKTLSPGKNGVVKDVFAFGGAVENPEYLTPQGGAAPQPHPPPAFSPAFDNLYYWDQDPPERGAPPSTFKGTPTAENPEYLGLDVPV

| SMILES | IC50 (HER2; [2]) | IC50 [1] | IC50 (HER2) |
| --- | --- | --- | --- |
| CC(C)S(=O)(=O)c1csc(NC(=O)Nc2ccc(C(C)(C)C)cc2)c1Cl [Example Z1, N-[3-Chloro-4-(isopropylsulfonyl)thien-2-yl]-N'-(4-t-butylphenyl)urea] | 11.8 µM | 10.3 µM | – |
| CC(C)S(=O)(=O)c1csc(NC(=O)Nc2cc(C(F)(F)F)cc(C(F)(F)F)c2)c1Cl [Example Z2, N-[3-Chloro-4-(isopropylsulfonyl)thien-2-yl]-N'-(3,5-di-trifluoromethylphenyl)urea] | 3.2 µM | 31.7 µM | – |
| O=C(Nc1ccc(SC(F)(F)F)cc1)Nc1ccc(Oc2ccc(Cl)cc2Cl)nc1 [Example Z3] | – | > 100 µM | 9.9 µM |
| N#Cc1ccc(NC(=S)Nc2ccc(S(=O)(=O)N3CCCCC3)cc2)cc1 [Example Z4, N-(4-Cyanophenyl)-N'-[4-[(piperid-1-yl)sulfonyl]phenyl]thiourea] | 9.3 µM | > 100 µM | – |
